Results reported in patent US9572881B2, “Halogenated compounds for photodynamic therapy” (Nanoquantum Sciences, Inc., priority 2012, dated 2017).
“And” between values parts separate entries of the source, which are not always exact repeats. Equal values may be shown once.

Key:
[1] = Absorption spectra and extinction coefficients of dyes; format: physicochemical; settings: for Extinction coefficient ε at λmax (abs): synthesis example, no unit
Description: Absorption spectra were measured at RT on a Perking Elmer Lambda 35 UV/Vis spectrophotometer. […] The stock solution was diluted (1:2000) and the absorbance was measured in a 5-cm standard quartz cell. All dye concentrations were in the range of 1.1 to 2.0×10^−7 M. The extinction coefficients were calculated according to Lambert-Beer's law.

[2] = Fluorescence emission spectra and quantum yield relative to HITC; format: physicochemical; settings: for QY (fluor): given as fraction in synthesis example
Description: Fluorescence spectra for the dyes were determined at RT on a Varian Cary Eclipse spectrofluorometer in a standard 1-cm quartz cell. The spectra were corrected. All concentrations of the fluorophores were chosen to be between 0.2 and 1.0 μM.
For the determination of the quantum yields (QY), the integrated relative intensities of the dyes or dye-protein conjugates, were measured against HITC as the reference. All absorbances at excitation wavelength (λexc) were in the range of 0.04-0.08 (when measured in a 1-cm cell).
The QY of each sample was independently measured 3-4 times and the average value was calculated.

[3] = Singlet oxygen quantum yield, DPBF scavenger method in ethanol; format: physicochemical; settings: measured in ethanol, 650 nm laser, ICG reference
Description: The modified relative photochemical method of Spiller W. et al. (J. Porphyrins Phthalocyanines, 1998, V. 2, 145-158) utilizing 1,3-diphenylisobenzofuran (DPBF) as a chemical scavenger was used to determine the photosensitiser's singlet oxygen quantum yields (ΦΔ) in ethanol solutions.
Ethanolic solutions containing DPBF (10 μM) and sensitizers with absorbance (optical density) in a range between 0.09 and 0.10 at 650 nm (measured in a standard 1-cm quartz cell) were prepared. Samples were saturated with oxygen by bubbling. Next, 3 mL of the solution were placed in a 1-cm cell equipped with a stirring bar and a 10 mW, 650 nm diode laser was hermetically attached to the top of cuvette so as to avoid solvent evaporation and to provide a light beam direction from top to bottom of the cuvette. The solution in the cuvette was irradiated with the diode laser under continuous stirring for a certain time. DPBF consumption was determined by monitoring DPBF bleaching over irradiation time using absorption spectroscopy at 411 nm (extinction coefficient 22,000 M^−1 cm^−1). At least six absorption spectra were obtained for each solution at different irradiation times until the DPBF absorbance reduced at least to the 10% of the initial absorbance.
The decrease of DPBF absorbance at 411 nm versus irradiation time was plotted for each photosensitizer and the DPBF degradation rate constant (K) characterizing the reaction rate of singlet oxygen with DPBF in presence of a sensitizer was calculated.

[4] = Phototoxicity (glow lamp) and dark toxicity by hemolysis of bovine erythrocytes; format: cell-based; settings: bovine, bovine erythrocytes, Glow Lamp
Description: (§1) Bovine erythrocytes were isolated from blood plasma stored with sodium citrate. 1 mL of bovine blood was treated at centrifuge (3,000 rpm) for 10 min to precipitate erythrocytes. The supernatant was decanted, 2 mL of physiological solution were added, treated and erythrocytes were precipitated with centrifuge. The washing procedure was repeated for 3 times and the precipitated erythrocytes were collected. […] Cells were dye-incubated for 45 minutes at 37° C. in the dark. Then the examined suspensions of cells (erythrocytes) were placed at a distance of 30-cm from a 250 W glow red-lamp equipped with a water-based heat filter and irradiated with occasional stirring. After irradiation, cells were stored at 4° C. for 15 hours. […] The hemolysis level (percentage of hemolyzed cells) was determined as the ratio of absorbances of the supernatant and a solution of 100% hemolysed cells. The 100% hemolysis was taken as the value obtained when the given number of erythrocytes were suspended in distilled water.

bovine erythrocytes = assay: as above; format: cell-based; settings: Dark, 50 μM
Description: as §1

Molecule	Absorption max. ([1]; Methanol) [nm]	Emission max. ([2]; Methanol) [nm]	Fluorescence quantum yield ([2]; Methanol) [%]	Absorption max. ([1]; Water)	Emission max. ([2]; Water)	other results
1-(5-carboxypentyl)-2-[7-(4,6-diiodo-1,3,3-trimethyl-3H-2-indoliumyl)-2,4,6-heptatrienylidene]-3,3-dimethyl-5-indolinesulfonate [I-73]	748	779	41			QY (fluor) ([2]; methanol): 0.41
1-(5-carboxypentyl)-2-[7-(4,6-diiodo-1,3,3-trimethyl-3H-2-indoliumyl)-2,4,6-heptatrienylidene]-3-methyl-3-(4-sulfobutyl)-5-indolinesulfonate [I-72]	750	780	41	750 nm	777 nm	Singlet oxygen generation quantum yield ΦΔ [3]: 12%; Extinction Coefficient ([1]; Water): 270,000 M^−1cm^−1; Extinction coefficient ε at λmax (abs) ([1]; water): 270,000; Fluorescence quantum yield ([2]; Water): 21%; QY (fluor) ([2]; methanol): 0.41; QY (fluor) ([2]; water): 0.21
3-(5-carboxypentyl)-2-[7-(4,6-diiodo-1,3,3-trimethyl-2,3-dihydro-1H-2-indolyliden)-1,3,5-heptatrienyl]-1,1-dimethyl-6-sulfo-8-(1H-benzo[e]indolium)sulfo-nate [I-74]	760	793	22			QY (fluor) ([2]; methanol): 0.22
CN1/C(=C\C=C2/CCCC(/C=C/C3=[N+](C)c4ccc(I)cc4C3(C)C)=C2Cl)C(C)(C)c2cc(I)ccc21.[I-] [I-56]	784	806	16			
CN(C)c1ccc(SC2=C(/C=C/C3=[N+](C)c4ccc(I)cc4C3(C)C)CCC/C2=C\C=C2/N(C)c3ccc(I)cc3C2(C)C)cc1.[I-] [I-61]	792	812	14			
CC(C)(C)C1=CC(=C/C=C/C=C/C=C/C2=[N+](CCCS(=O)(=O)[O-])c3ccc(I)cc3C2(C)CCCCCC(=O)O)C=C(C(C)(C)C)O1 (stereo not drawn) [I-68]	794	826	6			
CN1\C(=C/C=C/C=C/C=C/C2=[N+](C)c3cc(I)cc(I)c3C2(C)CCCCCC(=O)O)C(C)(CCCCCC(=O)O)c2c(I)cc(I)cc21.[I-] (stereo not drawn) [I-79, 3-(5-carboxypentyl)-2-7-[3-(5-carboxypentyl)-4,6-diiodo-1,3-dimethyl-2,3-dihydro-1H-2-indolyliden]-1,3,5-heptatrienyl-4,6-diiodo-1,3-dimethyl-3H-indolium iodide]						Absorption max. ([1]; Chloroform): 763 nm; hemolysis at 60 min, 0.5 µM ([4]; 0.5 μM, exposure 60 min): 75%; hemolysis at 30 min, 1 µM ([4]; 1 μM, exposure 30 min): 80%; Hemolysis (bovine erythrocytes): 4%
C[N+]1=C(C=CC=CC=CC=C2N(CCCCS(=O)(=O)[O-])c3ccc(S(=O)(=O)O)cc3C2(C)C)C(CCCCCC(=O)O)c2c(I)cc(I)cc21 (stereo not drawn) [I-83, 4-(2-7-[3-(5-carboxypentyl)-4,6-diiodo-1-methyl-3H-2-indoliumyl]-2,4,6-heptatrienylidene-3,3-dimethyl-5-sulfo-2,3-dihydro-1H-1-indolyl)-1-butanesulfonate]	750	779	43	748 nm	776 nm	Absorption max. ([1]; Conjugates with IgG (antibody)): 755 nm; Emission max. ([2]; Conjugates with IgG (antibody)): 776 nm; Fluorescence quantum yield ([2]; Water): 22%
CC1(CCCCCC(=O)O)C(/C=C/C=C/C=C/C=C2\N(CCCCS(=O)(=O)O)c3ccc(S(=O)(=O)[O-])cc3C2(C)CCCCS(=O)(=O)O)=[N+](CCCS(=O)(=O)O)c2cc(I)c(I)c(I)c21 (stereo not drawn) [I-84, 4-[2-7-[3-(5-carboxypentyl)-4,5,6-triiodo-3-methyl-1-(3-sulfopro-pyl)-2,3-dihydro-1H-2-indolyliden]-1,3,5-heptatrienyl-3-methyl-5-sulfo-3-(4-sulfobutyl)-3H-1-indoliumyl]-1-butanesulfonate]				758 nm	787 nm	Absorption max. ([1]; Conjugates with IgG (antibody)): 762 nm; Absorption max. ([1]; Phosphate buffer (pH 7.4)): 758 nm; Extinction coefficient ε at λmax (abs) ([1]; water): 270,000; Emission max. ([2]; Conjugates with IgG (antibody)): 787 nm; Emission max. ([2]; Phosphate buffer (pH 7.4)): 787 nm; Fluorescence quantum yield ([2]; Water (PB, pH 7.4)): 20%; QY (fluor) ([2]; water): 0.20
CN1\C(=C/C=C/C=C/C=C/C2=[N+](C)c3cc(Br)c(Br)c(Br)c3C2(C)C)C(C)(C)c2c1cc(Br)c(Br)c2Br.[I-] [I-88, 4,5,6-tribromo-1,3,3-trimethyl-2-[7-(4,5,6-tribromo-1,3,3-trimethyl-2,3-dihydro-1H-2-indolyliden)-1,3,5-heptatrienyl]-3H-indolium iodide]	748	778	50			Singlet oxygen generation quantum yield ΦΔ [3]: 11%; Extinction Coefficient ([1]; Methanol): 240,000 M^−1cm^−1; Extinction coefficient ε at λmax (abs) ([1]; methanol): 240,000; QY (fluor) ([2]; methanol): 0.50
C[N+]1=C(C=CC=CC=CC=C2N(CCCCCC(=O)NCCOCCOCCOCCC(=O)O)c3ccc(S(=O)(=O)[O-])cc3C2(C)CCCCS(=O)(=O)O)C(C)(C)c2c(I)cc(I)cc21 (stereo not drawn) [I-89, 1-[5-(2-2-[2-(2-carboxyethoxy)ethoxy]ethoxyethylcarbamoyl)-pentyl]-2-[7-(4,6-diiodo-1,3,3-trimethyl-3H-2-indoliumyl)-2,4,6-heptatrienylidene]-3-methyl-3-(4-sulfobutyl)-5-indolinesulfonate]				750 nm	777 nm	Singlet oxygen generation quantum yield ΦΔ [3]: 13%; Extinction Coefficient ([1]; Water): 270,000 M^−1cm^−1; Fluorescence quantum yield ([2]; Water): 21.5%
CC1(CCCCCC(=O)N2CC[N+]3(CC2)CC[N+]2(CCNCC2)CC3)C(/C=C/C=C/C=C/C=C2\N(CCCS(=O)(=O)[O-])c3cc(I)c(I)c(I)c3C2(C)CCCCCC(=O)N2CC[N+]3(CC2)CC[N+]2(CCNCC2)CC3)=[N+](CCCS(=O)(=O)[O-])c2cc(I)c(I)c(I)c21.[Cl-].[Cl-].[Cl-] (stereo not drawn) [I-91]	766	795	26			
CC1(CCCCCC(=O)NCCS(=O)(=O)O)C(/C=C/C=C/C=C/C=C2\N(CCCS(=O)(=O)O)c3cc(I)c(I)c(I)c3C2(C)CCCCCC(=O)NCCS(=O)(=O)O)=[N+](CCCS(=O)(=O)[O-])c2cc(I)c(I)c(I)c21 (stereo not drawn) [I-92]	764	794	39			
CN1\C(=C/C=C/C=C/C=C/C2=[N+](C)c3cc(I)c(I)c(I)c3C2(C)CCCCCC(=O)O)C(C)(CCCCCC(=O)O)c2c1cc(I)c(I)c2I.[I-] (stereo not drawn) [I-93]	755	783	47	783 nm	n.f.	
CN1\C(=C/C=C/C=C/C=C/C2=[N+](C)c3cc(I)c(I)c(I)c3C2(C)CCCCCC(=O)N2CC[N+]3(CC2)CC[N+]2(CCNCC2)CC3)C(C)(CCCCCC(=O)N2CC[N+]3(CC2)CC[N+]2(CCNCC2)CC3)c2c1cc(I)c(I)c2I.[Cl-].[Cl-].[Cl-].[Cl-].[Cl-] (stereo not drawn) [I-94]	759	788	38	695 nm and 756 nm	782 nm	Fluorescence quantum yield ([2]; Water): 1.8%
CN1/C(=C\C=C2/CCCC(/C=C/C3=[N+](C)c4cc(I)c(I)c(I)c4C3(C)C)=C2Cl)C(C)(C)c2c1cc(I)c(I)c2I.[I-] [I-96]	787	808	21			
